Consider four molecules from ChEMBL document CHEMBL4390635, “α-Glucosidase inhibition activity and in silico study of 2-(benzo[d][1,3]dioxol-5-yl)-4H-chromen-4-one, a synthetic derivative of flavone” (Bioorg Med Chem, 2019).

Active and inactive are the calls of the source. The calls are words filed in the database; no cut-off is given here.

The target of one experiment is Alpha glucosidase (Homo sapiens, UniProt O43451+P10253+P14410+Q2M2H8). The experiment in a line: Inhibition of alpha-glucosidase (unknown origin) incubated for 20 mins before pNPG substrate addition and measured after 30 mins by UV spectrometry. Type of experiment: protein assay.
Experiment [1] concerns Saccharomyces cerevisiae. As to the kind of experiment: Non-competitive inhibition of Saccharomyces cerevisiae alpha-glucosidase assessed as substrate Km incubated for 15 mins before pNPG substrate addition and measured for 180 secs by spectrophotometry based Michaelis-Menten equation and Lineweaver-Burk plot analysis.
Experiment [2] deals with Saccharomyces cerevisiae. The experiment in a line: Inhibition of Saccharomyces cerevisiae alpha-glucosidase incubated for 30 mins before pNPG substrate addition and measured after 10 mins by spectrophotometry.
The test system of experiment [3] is Saccharomyces cerevisiae. As to the kind of experiment: Non-competitive inhibition of Saccharomyces cerevisiae alpha-glucosidase assessed as substrate Vmax incubated for 15 mins before pNPG substrate addition and measured for 180 secs by spectrophotometry based Michaelis-Menten equation and Lineweaver-Burk plot analysis.
The test system of experiment [4] is Saccharomyces cerevisiae. The experiment in a line: Inhibition of Saccharomyces cerevisiae alpha-glucosidase at 3.54 uM incubated for 30 mins before pNPG substrate addition and measured after 10 mins by spectrophotometry relative to untreated control.
Experiment [5] deals with Saccharomyces cerevisiae. As to the kind of experiment: Inhibition of Saccharomyces cerevisiae alpha-glucosidase at 27.62 uM incubated for 30 mins before pNPG substrate addition and measured after 10 mins by spectrophotometry relative to untreated control.
Experiment [6] relates to Saccharomyces cerevisiae. As to the kind of experiment: Inhibition of Saccharomyces cerevisiae alpha-glucosidase at 669.57 uM incubated for 30 mins before pNPG substrate addition and measured after 10 mins by spectrophotometry relative to untreated control.
Experiment [7] concerns Saccharomyces cerevisiae. As to the kind of experiment: Competitive inhibition of Saccharomyces cerevisiae alpha-glucosidase incubated for 30 mins before pNPG substrate addition and measured after 10 mins by spectrophotometry based Michaelis-Menten equation and Lineweaver-Burk plot analysis.

H-RVPSLM-OH registered an IC50 at Alpha glucosidase of 23.07 µM.
With `Cc1cc(=O)oc2c(O)c(O)ccc12` [4-METHYLDAPHNETIN], the IC50 on Alpha glucosidase is 52 µM.
`O=c1cc(-c2ccc3c(c2)OCO3)oc2ccccc12`: in the experiment with Saccharomyces cerevisiae [1], the Km turned out to be 71.4 µM⁻¹. Besides, the inhibition result in the experiment with Saccharomyces cerevisiae [2] is “Dose-dependent effect”; in the experiment with Saccharomyces cerevisiae [4], 8.4%; in the experiment with Saccharomyces cerevisiae [5] it was 99.3%. Further, in the experiment on Saccharomyces cerevisiae [3], the Vmax amounted to 0.028 µmol/min.
In turn, `C[C@H]1O[C@H](O[C@H]2[C@H](O)[C@@H](O)[C@@H](O[C@H]3[C@H](O)[C@@H](O)C(O)O[C@@H]3CO)O[C@@H]2CO)[C@H](O)[C@@H](O)[C@@H]1N[C@H]1C=C(CO)[C@@H](O)[C@H](O)[C@H]1O` (some centres undefined) displayed an inhibition in the experiment with Saccharomyces cerevisiae [6] of 97.7%. For the same molecule, the inhibition entry with Saccharomyces cerevisiae [7] is “Active”.

As a reminder, the IC50 is the concentration that gives 50% inhibition. A higher IC50 goes with weaker potency. As usually defined, the inhibition is the change of the read-out against control, counted positive when it falls. What is called Vmax is the rate approached at saturating substrate.
